As usually defined, the IC50 is the point on the concentration scale where inhibition reaches its midpoint. Higher therefore signals a need for much substance.

The record followed here is PMC7665123, “In Vitro Anti-Inflammatory Activity in Arthritic Synoviocytes of A. brachypoda Root Extracts and Its Unusual Dimeric Flavonoids” (Molecules, 2020).

Data set [1] deals with IL-6 release from IL-1β activated HFLS. The data set is described as follows: IL-6 release by ELISA in IL-1β activated human fibroblast-like synoviocytes. The data set is classed as cell-based. The note with it: for inhibition at 25 µM: compounds at 25 µM = 13 µg/mL, read-out: Inhibition of IL-6 release at highest non-toxic concentration (%); for IC50: isolated compounds; for Fold higher activity (IC50) compared to compound 1 / DCMAB: IC50 comparison. The method, then:
Hip synovial membrane was collected from three male adult patients with clinical osteoarthritis (OA) at the time of hip replacement surgery. […] Once collected, tissue samples were processed, according to previously described protocols. […] After overnight culture, non-adherent cells were removed. At confluence, cells were trypsinized and passaged to 75 cm^2 culture flasks (Corning, NY, USA) in complete medium containing 10% fetal bovine serum. […] All cellular assays were performed from passage 3 to 9. Experiments were conducted twice per donor (n = 6).
All tested compounds were dissolved in a dimethyl sulfoxide (DMSO) stock solution and further diluted in culture medium. Final concentration of DMSO in vehicle of tested concentrations was 0.01%. After 1 h incubation, cells were activated by addition of IL-1β (1 µg/mL) (R&D Systems, Bio-Techne, Abingdon, UK) with subsequent incubation for 23 h. All supernatants were kept at −80 °C, before further testing. Remaining adherent cells were tested for viability using the cell proliferation reagent WST-1 (Roche, Basel, Switzerland), according to the supplier instructions. Pro-inflammatory cytokine IL-6 release in cell supernatant was assessed by ELISA. […] All samples were diluted 90 times. Experiments were conducted twice per donor (n = 6).
In this study, data are presented as mean values ± standard deviation (S.D.). All analyses were performed using GraphPad Prism 8.3 software. IC50 values were determined using a nonlinear fitting of a log (inhibitor concentration) vs response variable slope for each donor’s data set. Consequent values were then averaged. After confirming the data normal distribution and homogeneity of variances (Brown-Forsythe and Welch; Shapiro-Wilk, D’Agostino-Pearson and Anderson-Darling), statistical analysis was performed using a two-way ANOVA with a Bonferroni multiple comparisons test. Significance was determined at alpha level 0.05. Significance values represented are * p < 0.05, ** p < 0.009 and ns for non-significance.
A general note: In an ELISA, binding on a coated surface is turned into a signal by an enzyme label.

The subject of data set [2] is human fibroblast like synoviocytes (HFLS). Put plainly: In vitro cytotoxicity (WST-1 cell viability) in HFLS. In kind it is cell-based. The note with it: 24 h, tested 3-100 µM. As to the method: Hip synovial membrane was collected from three male adult patients with clinical osteoarthritis (OA) at the time of hip replacement surgery. This protocol was conducted under the approval of the local Ethics Committee (CCER, Geneva, Switzerland) (Authorization #2017-02234) and with informed and consenting patients. Once collected, tissue samples were processed, according to previously described protocols. Briefly, samples were finely minced and digested for 3 h (37 °C, 5% CO2 incubation) in a 3 mg/mL collagenase IX-RPMI 1640 solution. After centrifugation (200× g) and supernatant removal, the resuspended pellet was cultured (37 °C, 5% CO2) in medium containing RPMI 1640, M199 (1:1), 1% penicillin/streptomycin (100 IU/mL:100 µg/mL), 2 mM L-glutamine and 20% fetal bovine serum. After overnight culture, non-adherent cells were removed. At confluence, cells were trypsinized and passaged to 75 cm^2 culture flasks (Corning, NY, USA) in complete medium containing 10% fetal bovine serum. A double control was performed to confirm presence of HFLS after isolation: visual morphology evaluation (Figure S3) and flow cytometry with synoviocyte specific surface markers ([…] and VCAM-1). […] All cellular assays were performed from passage 3 to 9. Experiments were conducted twice per donor (n = 6).
Confluent HFLS cells (25,000 cells/well) were treated in a 96-well plate with compounds 1, 2, and 3 (3 µM, 6 µM, 12 µM, 25 µM, 50 µM, and 100 µM), HEAB and DCMAB (increasing concentrations from 3 to 100 µg/mL), or control vehicle for 1 h. All tested compounds were dissolved in a dimethyl sulfoxide (DMSO) stock solution and further diluted in culture medium. Final concentration of DMSO in vehicle of tested concentrations was 0.01%. After 1 h incubation, cells were activated by addition of IL-1β (1 µg/mL) (R&D Systems, Bio-Techne, Abingdon, UK) with subsequent incubation for 23 h. All supernatants were kept at −80 °C, before further testing. […] Pro-inflammatory cytokine IL-6 release in cell supernatant was assessed by ELISA. […]

Where [3] appears, read: Homo sapiens, IL-1β activated HFLS, 24 h.
[4] abbreviates: Homo sapiens, IL-1β activated HFLS, 24 h, n = 6.
Where [5] appears, read: Homo sapiens, µM values transformed into µg/mL.

Compound `COc1cc(O)cc2c1C(C=Cc1ccc(O)cc1)C1C(c3ccccc3)Oc3cc(O)cc(OC)c3C1O2` (stereo not drawn) [Compound 1, brachydin A] had an inhibition at 50 µM in data set [1] (Homo sapiens, 50 µM, non-significant) of 24%. Moreover, the inhibition at 25 µM in data set [1] (setting [3]) was determined as 10 ± 11%. In addition, the IC50 in data set [1] (setting [4]) came out at 62 ± 2 µM; in data set [1] (setting [5]), 33 ± 2 µg/mL. The “Concentration at which cytotoxicity / loss of viability occurs” value in data set [2] was 100 µM.

Consider `COc1ccc(C=CC2c3c(OC)cc(O)cc3OC3c4c(OC)cc(O)cc4OC(c4ccccc4)C23)cc1` (stereo not drawn) [Compound 2, brachydin B], for which the inhibition at 25 µM in data set [1] (setting [3]) was determined as 80 ± 9%. Moreover, the IC50 in data set [1] (setting [4]) was 17 ± 3 µM; in data set [1] (setting [5]) it was 9 ± 3 µg/mL. Moreover, in data set [1], the “Fold higher activity (IC50) compared to compound 1 / DCMAB” value is reported as 3 fold. Further, in data set [2], the “Concentration at which cytotoxicity / loss of viability occurs” value is recorded as 50 µM.

`COc1cc(O)cc2c1C(C=Cc1ccccc1)C1C(c3ccccc3)Oc3cc(O)cc(OC)c3C1O2` (stereo not drawn) [Compound 3, brachydin C]: the inhibition at 25 µM in data set [1] (setting [3]) was 94 ± 5%. In addition, the IC50 in data set [1] (setting [4]) amounted to 19 ± 3 µM; in data set [1] (setting [5]), 10 ± 3 µg/mL. In data set [1], the “Fold higher activity (IC50) compared to compound 1 / DCMAB” value came to 3 fold. Besides, the “Concentration at which cytotoxicity / loss of viability occurs” value in data set [2] amounted to 50 µM.
